Measurements reported in paper PMC9969401, “Discovery of 2-(3-Benzamidopropanamido)thiazole-5-carboxylate Inhibitors of the Kinesin HSET (KIFC1) and the Development of Cellular Target Engagement Probes” (Journal of Medicinal Chemistry, 2023).

How the values were obtained:
[1] = target: T1, recombinant full-length HSET (Homo sapiens, UniProt Q9BW19); assay: ADP-Glo HSET assay (3 μM ATP), microtubule-stimulated ATPase; assay type: biochemical; details: for IC50: preformed microtubules, 3 μM ATP, read-out: HSET ADP-Glo IC50
T1 construct: 5 nM full-length human N-terminal His-tag HSET; His-tag (N)
T1 sequence (Q9BW19 1-673): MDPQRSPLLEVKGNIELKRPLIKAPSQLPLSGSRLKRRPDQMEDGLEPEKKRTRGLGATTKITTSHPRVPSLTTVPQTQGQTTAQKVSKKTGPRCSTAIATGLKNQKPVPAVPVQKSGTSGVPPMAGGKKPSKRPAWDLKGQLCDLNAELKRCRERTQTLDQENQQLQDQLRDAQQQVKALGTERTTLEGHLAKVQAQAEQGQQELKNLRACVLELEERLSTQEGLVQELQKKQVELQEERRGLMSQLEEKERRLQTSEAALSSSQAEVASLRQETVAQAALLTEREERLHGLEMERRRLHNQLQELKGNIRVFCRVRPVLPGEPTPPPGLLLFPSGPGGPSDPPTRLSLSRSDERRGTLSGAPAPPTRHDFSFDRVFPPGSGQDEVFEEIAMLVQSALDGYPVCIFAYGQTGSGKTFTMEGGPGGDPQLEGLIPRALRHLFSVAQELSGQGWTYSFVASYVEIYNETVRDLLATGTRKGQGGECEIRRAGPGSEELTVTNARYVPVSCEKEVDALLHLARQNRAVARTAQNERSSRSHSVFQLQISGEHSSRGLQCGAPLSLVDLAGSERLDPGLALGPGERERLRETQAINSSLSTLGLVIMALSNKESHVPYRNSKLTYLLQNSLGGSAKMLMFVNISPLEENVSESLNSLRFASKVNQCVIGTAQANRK
Summary of the method: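 His-tagged full-length HSET (5 nM) or GST-Eg5 motor domain (4 nM), with 70 μg/mL paclitaxel-stabilised microtubules in HEPES pH 6.8 buffer, was preincubated with compound for 10 min. ATP was then added (3 or 500 μM for HSET, 4.8 μM for Eg5), followed by 80 min at 25 °C and ADP-Glo luminescence. IC50 was fitted with a four-parameter logistic.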

[2] = tested on: centrosome-amplified (4NCA) DLD1 cells; assay: Multipolar spindle assay (4NCA cell line); assay type: cell-based, human; details: for increase in mitotic spindle multipolarity (4NCA): centrosome-amplified (4NCA) DLD1 cell line
Excerpt: (§1) The cellular models consisted of chromosomally stable human colon cancer DLD1 diploid (2N) and tetraploid (4N) cells, along with tetraploid centrosome -amplified (4NCA) DLD1 cells and DLD1 HSET knockout (KO) cells. DLD1 2N and 4N cells were generated and characterized as previously described.[27],[41],[42] In order to generate 4NCA cells, we used dihydro-cytochalasin B (DCB) to transiently block cytokinesis and induce tetraploidisation and centrosome amplification in DLD1 cells. Centrosome amplification in 4NCA cells is transient and therefore they were generated from 2N cells for each run of the assay.[27] The DLD1 HSET KO cells were knockout clones generated by CRISPR and validated by sequencing to have a homozygous deletion in the KIFC1 gene.
(§2) Inhibition of HSET-mediated clustering was measured using a phenotypic assay measuring the formation of multipolar metaphase spindles in DLD1 cells with (4NCA) or without (4N) centrosome amplification. 4NCA cells were generated by treating 2N DLD1 cells with 2 μΜ DCB for 24 h, washed, and released in growth media for 24 h. 4N and 4NCA DLD1 cells were plated in 96-well ibidi μ-Clear plates (IB-89626, ibidi) with a no. 1.5 polymer coverslip bottom with optimal imaging properties. To enrich the mitotic population, cells were first treated for 3.5 h with 8 μM pro-TAME (I-440-01M, R&D system), an inhibitor of APC/C that transiently arrests cells in metaphase without affecting the structure of the spindle. Following the initial arrest, cells were treated with HSET compounds in the presence of 8 μM MG-132 (S2619, SelleckChem), a proteasome inhibitor that helps to maintain the metaphase arrest, where the number of spindle poles/cell can be optimally quantified by an automated segmentation analysis.
(§3) Cells were then fixed in methanol and stained for 3 h for mitotic pole marker aurora A (1:1000 610939 mouse anti-IAK1, BD Biosciences) and phosphorylated histone H3 (1:1500 ab47297 anti-histone H3 pS10, Abcam) as a marker of mitotic cells in 1.5% FBS in PBS. Following primary antibody treatment, cells were incubated with secondary antibodies Alexa Fluor 488 goat antimouse and Alexa Fluor 555 goat antirabbit (1:1500, A11029 and A21429, respectively, Life Technologies) together with 1 μg/mL DAPI (D9542, Sigma) in 1.5% FBS in PBS. Image acquisition was performed at 10× using the GE INCELL 2200 High Content Imaging System (Cytiva) and analyzed using the InCell Investigator software. Mitotic cells were identified by high pHH3 staining and were scored as multipolar if they had more than two mitotic spindle poles. The percentage of multipolar mitoses was calculated by dividing the number of multipolar mitoses by the total of all visible mitoses in one well of a 96-well plate (n > 100 for each replicate, two replicates per concentration point).

[3] = target: T1, recombinant full-length HSET; assay: ADP-Glo HSET assay (500 μM ATP); assay type: biochemical; details: high ATP concentration of 500 μM; single determination or mean of two
Procedure: (§4) The HSET or Eg5 ATPase activity was measured using the ADP-Glo Kinase Assay kit (Promega, V9102). The assays were run using final concentrations of 5 nM full-length human N-terminal His-tag HSET or 4 nM GST-tagged Eg5 motor domain protein (Cytoskeleton, EG01) and an assay buffer containing 20 mM HEPES pH 6.8, 10 mM MgCl2, 0.25 mM EGTA, 0.4 mM Triton X-100, and 1 mM DTT. Preformed microtubules (Universal Biologicals Cambridge, bovine MT001-XL, or porcine MT002-XL), which were reconstituted in 15 mM PIPES pH 7, 1 mM MgCl2, and 20 μM paclitaxel, were present at a final assay concentration of 70 μg/mL. A reaction volume of 5 μL was used in Proxiplate 384 plus white assay plates (PerkinElmer, 6008280). To measure compound inhibition, 100 nL of compound dissolved in DMSO or DMSO alone was preincubated with the HSET and microtubules for 10 min before 3 μM Ultra-Pure ATP was added to start the ATPase reaction for the 3 μM ATP HSET assay. For the 500 μM ATP HSET assay, the addition of 500 μM Ultra-Pure ATP was used. For the Eg5 ATPase assay, 4.8 μM Ultra-Pure ATP was used. All reactions were incubated at 25 °C for 80 min and then stopped by the addition of 5 μL of the ADP-Glo reagent. 10 μL of Kinase Detection Reagent was then added after a further 45 min of incubation. The luminescence was read after 45 min on a PheraStar FSX plate reader (BMG Labtech). The data processing was performed using Dotmatics Studies software package. Percentage inhibition was determined based on normalization to high controls (0% inhibition, all reagents with 100 nL of DMSO alone) and low controls (100% inhibition […], without HSET). The IC50 values for each compound were determined using a four-parameter logistic curve fit of % inhibition versus concentration.

[4] = tested on: non-centrosome amplified DLD1 (4N) cells; assay: Multipolar spindle assay (4N cell line); assay type: cell-based, human; details: for % Multipolarity above baseline @ 15 mM (4N cells) / effect on multipolar mitoses (4N), in words: 15 μM; for % Multipolarity above baseline @ 15 mM (4N cells): supplementary CSV; for effect on multipolar mitoses (4N), in words: non-centrosome amplified DLD1 (4N) cell line; for % multipolarity above baseline @ 15 μM (4N cells): 4N DLD1 cells (Table 4)
Excerpt: as §1, §2, §3

[5] = target: T2, GST-tagged Eg5 motor domain (Homo sapiens, UniProt P52732); assay: ADP-Glo Eg5 assay (4.8 μM ATP); assay type: biochemical; details: preformed microtubules, 4.8 μM ATP (Table 4)
T2 construct: 4 nM GST-tagged Eg5 motor domain protein (Cytoskeleton, EG01); purchased Cytoskeleton EG01
T2 sequence (P52732 18-359 limits assumed): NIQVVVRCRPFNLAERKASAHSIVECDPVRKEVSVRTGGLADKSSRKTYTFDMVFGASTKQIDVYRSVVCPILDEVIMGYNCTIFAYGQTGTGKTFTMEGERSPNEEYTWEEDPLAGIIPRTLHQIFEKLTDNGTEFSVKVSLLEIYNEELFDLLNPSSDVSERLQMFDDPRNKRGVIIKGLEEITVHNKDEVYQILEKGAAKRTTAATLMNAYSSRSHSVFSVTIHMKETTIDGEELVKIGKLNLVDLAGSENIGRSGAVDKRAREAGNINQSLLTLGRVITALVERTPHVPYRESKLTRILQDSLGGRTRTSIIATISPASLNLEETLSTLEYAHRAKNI
Procedure: as §4

DLD1 cells (4NCA and 4N) = assay type: cell-based; details: human
Procedure: as §2, §3
3. […]

[6] = 15 μM, 4NCA DLD1 cells (Table 4)
[7] = 15 µM, 4NCA cells, supplementary CSV
[8] = LE = −1.4Log(IC50 [M])/number of non-hydrogen atoms (Table 1)
[9] = LLE = −Log(IC50 [M]) – cLogP (MoKa) (Table 1)
[10] = mean (±SD) n ≥ 3, >200 from a single determination (Table 1)

Row | LE ([1]; LE = −1.4Log(IC50 [M])/number of non-hydrogen atoms (Table 2)) | LLE ([1]; LLE = −Log(IC50 [M]) – cLogP (MoKa) (Table 2)) | IC50 ([1]; mean (±SD) n ≥ 3 (Table 4)) | IC50 ([1]; mean (±SD) n ≥ 3, >200 from a single determination (Table 2)) | IC50 [3] | IC50 [5] | ligand efficiency (LE) [1] | lipophilic ligand efficiency (LLE) [1] | LE [1, 8] | LLE [1, 9] | IC50 [1, 10] | SMILES | % multipolarity above baseline @ 15 μM (4NCA cells) [2, 6] | % multipolarity above baseline @ 15 μM (4NCA cells) [2, 7] | increase in mitotic spindle multipolarity (4NCA) ([2]; 15 μM) | % Multipolarity above baseline @ 15 mM (4N cells) [4] | effect on multipolar mitoses (4N), in words [4] | % multipolarity above baseline @ 15 μM (4N cells) [4] | concentration at which cellular toxicity observed (DLD1 cells (4NCA and 4N))
1 | 0.32 | 3.7 | 0.093 µM | 0.093 µM | 0.332 µM | > 200 µM |  |  |  |  |  | CCOC(=O)c1sc(NC(=O)CCNC(=O)c2cccc(-c3noc(C)n3)c2)cc1C [Compound 26, Ethyl 3-Methyl-5-(3-(3-(5-methyl-1,2,4-oxadiazol-3-yl)benzamido)propanamido)thiophene-2-carboxylate] | 13% | 13% | ~10% | 1% | no increases in multipolar mitoses | 1% | 
2 |  |  | 0.027 µM |  | 0.086 µM | > 200 µM | 0.34 | 5.4 | 0.34 | 5.4 | 0.027 µM | CCOC(=O)c1sc(NC(=O)CCNC(=O)c2cccc(-c3nnn(C)n3)c2)nc1C [Compound 18, Ethyl 4-Methyl-2-(3-(3-(2-methyl-2H-tetrazol-5-yl)benzamido)propanamido)thiazole-5-carboxylate] | 11% | 11% | ~10% | 0% | no increases in multipolar mitoses | 0% | 
3 |  |  | 0.171 µM |  | 0.825 µM | 35.6 µM |  |  | 0.25 | 1.5 | 0.171 µM | CCCc1cc(C(=O)N[C@H](Cc2ccc(-c3cccc(OC(F)(F)F)c3)nc2)C(=O)N[C@@H]2CCNC2)sc1C [Compound 1, 5-Methyl-6N-((R)-1-oxo-1-((R)-pyrrolidin-3-ylamino)-3-(6-(3-(trifluoromethoxy)phenyl)pyridin-3-yl)propan-2-yl)-4-propylthiophene-2-carboxamide, reference compound] |  |  |  |  |  |  | 6 µM
